Tests used:
[1] = target: T1, Tyrosinase (Homo sapiens) (UniProt P14679); experiment: Inactivation of tyrosinase (unknown origin) assessed as initial rate of oxygen utilization at absorbance 400 nm using 4-methylcatechol substrate at 850 uM equimolar concentrations resorcinol by spectrophotometry
T1 sequence (whole entry): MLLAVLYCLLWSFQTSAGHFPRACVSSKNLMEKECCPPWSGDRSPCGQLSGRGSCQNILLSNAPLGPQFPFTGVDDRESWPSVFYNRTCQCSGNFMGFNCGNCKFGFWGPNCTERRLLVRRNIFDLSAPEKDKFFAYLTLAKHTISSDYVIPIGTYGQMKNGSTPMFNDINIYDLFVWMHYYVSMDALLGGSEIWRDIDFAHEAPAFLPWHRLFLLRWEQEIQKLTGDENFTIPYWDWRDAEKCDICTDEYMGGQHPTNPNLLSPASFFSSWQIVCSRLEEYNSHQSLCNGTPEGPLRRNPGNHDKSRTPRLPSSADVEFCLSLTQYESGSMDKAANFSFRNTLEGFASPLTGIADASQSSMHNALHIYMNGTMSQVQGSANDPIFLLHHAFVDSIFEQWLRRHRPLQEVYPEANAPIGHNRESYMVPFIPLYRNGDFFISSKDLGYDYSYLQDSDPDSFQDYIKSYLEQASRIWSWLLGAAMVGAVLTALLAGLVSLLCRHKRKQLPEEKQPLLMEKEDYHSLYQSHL

[2] = target: T1, Tyrosinase (Homo sapiens); experiment: Inactivation of tyrosinase (unknown origin) assessed as decay half-life using 4-methylcatechol substrate at 850 uM equimolar concentrations resorcinol by spectrophotometry
[3] = target: T1, Tyrosinase (Homo sapiens); experiment: Inactivation of tyrosinase (unknown origin) assessed as initial rate of oxygen utilization using 4-methylcatechol substrate at 850 uM equimolar concentrations resorcinol by spectrophotometry
[4] = target: T1, Tyrosinase (Homo sapiens); experiment: Inactivation of tyrosinase (unknown origin) assessed as total oxygen uptake using 4-methylcatechol substrate at 850 uM equimolar concentrations resorcinol by spectrophotometry
[5] = target: T1, Tyrosinase (Homo sapiens); experiment: Inactivation of tyrosinase (unknown origin) assessed as initial rate of oxygen utilization at absorbance 400 nm using 4-methylcatechol substrate at 850 uM by spectrophotometry
[6] = target: T1, Tyrosinase (Homo sapiens); experiment: Inactivation of tyrosinase (unknown origin) assessed as decay half-life using 4-methylcatechol substrate at 850 uM by spectrophotometry
[7] = target: T1, Tyrosinase (Homo sapiens); experiment: Inactivation of tyrosinase (unknown origin) assessed as total oxygen uptake using 4-methylcatechol substrate at 850 uM by spectrophotometry
[8] = target: T1, Tyrosinase (Homo sapiens); experiment: Inactivation of tyrosinase (unknown origin) assessed as initial rate of oxygen utilization using 4-methylcatechol substrate at 850 uM by spectrophotometry

Row | SMILES | Activity [1] [%] | Decay half-life [2] [%] | Activity [3] [%] | Activity [4] [%] | Activity [5] [%] | Activity [6] [%] | Activity [7] [%] | Activity [8] [%]
1 | Oc1c(Cl)cc(Cl)c(O)c1Cl | 105 | 73 | 110 | 86 | – | – | – | –
2 | CCc1ccc(O)cc1O | < 1 | – | 1 | 0 | – | – | – | –
3 | Oc1cccc(O)c1O | 100 | – | 100 | 100 | – | – | – | –
4 | Oc1cc(F)cc(O)c1F | 51 | 74 | 41 | 31 | – | – | – | –
5 | Oc1ccc(F)c(O)c1F | 28 | 48 | 18 | 30 | – | – | – | –
6 | Cc1c(O)cccc1O | 103 | 82 | 105 | 90 | – | – | – | –
7 | Cc1cc(O)cc(O)c1 | 46 | 31 | 63 | 28 | – | – | – | –
8 | Oc1cccc(O)c1F | 40 | 68 | 33 | 35 | – | – | – | –
9 | Cc1cc(C)c(O)cc1O | 57 | 193 | 46 | 69 | – | – | – | –
10 | Oc1ccc(F)c(O)c1 | 10 | – | 6 | 0 | – | – | – | –
11 | Oc1cc(O)c(Cl)cc1Cl | 22 | 160 | 29 | 33 | – | – | – | –

More lines, now with the values ahead:

Row | Activity [1] [%] | Decay half-life [2] [%] | Activity [3] [%] | Activity [4] [%] | Activity [5] [%] | Activity [6] [%] | Activity [7] [%] | Activity [8] [%] | SMILES
12 | – | – | – | – | 26 | 75 | 37 | 32 | Oc1cccc(O)c1
13 | 46 | 122 | 67 | 52 | – | – | – | – | Oc1cc(O)cc(F)c1
14 | 62 | 22 | 64 | 26 | – | – | – | – | COc1cc(O)cc(O)c1
15 | 133 | 81 | 95 | 75 | – | – | – | – | Oc1cc(O)cc(O)c1
16 | 79 | 72 | 60 | 69 | – | – | – | – | Oc1cccc(O)c1Cl
17 | 86 | 97 | 91 | 75 | – | – | – | – | Oc1c(F)c(O)c(F)c(F)c1F
18 | 103 | 82 | 97 | 117 | – | – | – | – | Cc1cc(O)c(C)c(O)c1
19 | 30 | 83 | 30 | 29 | – | – | – | – | Oc1cc(O)c(F)cc1F

Source: ChEMBL document CHEMBL2331209, “Mechanistic studies of the inactivation of tyrosinase by resorcinol” (Bioorg Med Chem, 2013)
